Measurements taken from patent publication US10029986B2, “Alkynyl pyridine-substituted amide compound and pesticide” (NISSAN CHEMICAL INDUSTRIES, LTD., priority 2014, dated 2018).

Key:
Sclerotinia sclerotiorum = assay: Test on the preventive effect against cucumber stem rot; type: in vivo; details: 48 h, test solution A 500 ppm, 5 ml per pot, agar block inoculation, 2 days at 20° C.
Procedure, shortened: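 Cucumber (Sagami Hanjiro) at cotyledon stage sprayed with 5 ml/pot of 500 ppm compound from a 20 wt % emulsifiable concentrate, air-dried, then inoculated on seed leaves with agar blocks of S. sclerotiorum grown on PDA. Kept humid at 20° C for 2 days; lesion proportion scored and control value calculated, in duplicate.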

[1] = test system: Barber pole worm (Haemonchus contortus); assay: Insecticidal test against Barber pole worm (eggs, 96 well plate); type: in vivo; details: 96 h, test solution B 100 ppm, 10 μl per well, 25° C. dark, 4 days after treatment, read-out: efficacy (unhatched eggs and inactive larvae relative to non-treated)
Procedure, shortened: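 Haemonchus contortus eggs (about 10 per 3 μl) were placed on 1% potato dextrose agar in wells. Compound diluted from 1 wt % DMSO solutions to 100 ppm in water was added, and plates were held at 25° C. in the dark.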

[2] = test system: Blumeria graminis f. sp. tritici; assay: Test on the preventive effect against wheat powdery mildew; type: in vivo; details: 168 h, test solution A 500 ppm, 5 ml per pot, wheat 1.3-leaf stage, 7 days after inoculation
Procedure, shortened: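 Compounds formulated as 20 wt % emulsifiable concentrates and diluted with water to 500 ppm; 5 ml per pot applied to wheat (Norin 61) at the 1.3-leaf stage. Conidia inoculated one day later in a 20° C greenhouse; lesion proportion scored after 7 days as control value, in duplicate.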

Botrytis cinerea [3] = assay: Test on the preventive effect against cucumber gray mold (mycelium inoculation); type: in vivo; details: 48 h, test solution A 500 ppm, 5 ml per pot, cucumber cotyledon, agar block inoculation, 2 days at 20° C.
Procedure, shortened: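 Cucumber cotyledons (Sagami Hanjiro) were sprayed with 5 ml per pot of a 500 ppm dilution of a 20 wt % emulsifiable concentrate. Next day, mycelial agar plugs of Botrytis cinerea were placed on cotyledons, held humid at 20° C for 2 days. Lesion proportion gave the control value; duplicate.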

Botrytis cinerea [4] = assay: Test on the preventive effect against cucumber gray mold (spore inoculation); type: in vivo; details: 72 h, test solution A 500 ppm, 5 ml per pot, cucumber cut leaves, conidium inoculation, 3 days at 20° C.
Procedure, shortened: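 Cotyledon-stage cucumber (Sagami Hanjiro) sprayed with 500 ppm compound from emulsifiable concentrate; detached treated leaves inoculated with B. cinerea conidia in PDA (1:1). After 3 days at 20 °C, humid, lesion proportion gave control value; duplicate test.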

Asperaillus niger = assay: Test on the antifungal activity against Asperaillus niger; type: cell-based; details: 48 h; test solution B 100 ppm, 10 μl per well, 96 well plate, 25° C. dark, 2 days after treatment; read-out: efficacy (flora area ratio relative to non-treated well)
Procedure, shortened: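 Compounds at 100 ppm (diluted from DMSO stock in water) were added to potato dextrose 1% agar wells seeded with Aspergillus niger spores (10 spores/3 μl). Plates held at 25 °C in dark for 2 days. Efficacy (%) calculated from flora area ratio versus non-treated wells.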

With COC(c1ncc(C#CC2CC2)cc1Cl)C(C)NC(=O)c1sc(C)nc1C(F)F (stereo not drawn) [9-006a] the pest or weed control at 500 µg/mL (Sclerotinia sclerotiorum) was at least 70%, the pest or weed control at 100 µg/mL [1] was at least 50% and the pest or weed control at 500 µg/mL [2] was at least 70%. The pest or weed control at 500 µg/mL (Botrytis cinerea [3]) was at least 70%, the pest or weed control at 500 µg/mL (Botrytis cinerea [4]) was at least 70% and the inhibition of growth at 100 µg/mL (Asperaillus niger) was at least 50%.
